# Assays:
# [1] = target: Voltage-gated inwardly rectifying potassium channel KCNH2 (Homo sapiens, UniProt Q12809)
# in vitro [2] = settings: human, liver microsomes
# in vitro [3] = settings: dog, liver microsomes
# in vitro [4] = settings: rat, liver microsomes
# LN-18 = assay: Antiproliferative activity against human LN-18 cells assessed as inhibition of cell growth incubated for 72 hrs MTS assay; assay type: functional, cell-based; settings: LN-18, 72 h
# TMD8 [5] = assay: Antitumor activity against human TMD8 cells xenografted in mouse assessed as tumor growth inhibition at 10 mg/kg, po; assay type: functional; settings: read-out: TGI
# TMD8 [6] = assay: cells; settings: Homo sapiens, TMD8, 72 h
# DOHH-2 = assay: cells; settings: Homo sapiens, DOHH-2, 72 h
# HT-29 = assay: cells; settings: Homo sapiens, HT-29, 72 h
# PC-3 = assay: cells; settings: Homo sapiens, PC-3, 72 h
# A549 = assay: cells; settings: Homo sapiens, A549, 72 h
# PANC-1 = assay: cells; settings: Homo sapiens, PANC-1, 72 h
# MDA-MB-231 = assay: cells; settings: Homo sapiens, MDA-MB-231, 72 h
# Sequence of Voltage-gated inwardly rectifying potassium channel KCNH2 (Q12809 whole entry): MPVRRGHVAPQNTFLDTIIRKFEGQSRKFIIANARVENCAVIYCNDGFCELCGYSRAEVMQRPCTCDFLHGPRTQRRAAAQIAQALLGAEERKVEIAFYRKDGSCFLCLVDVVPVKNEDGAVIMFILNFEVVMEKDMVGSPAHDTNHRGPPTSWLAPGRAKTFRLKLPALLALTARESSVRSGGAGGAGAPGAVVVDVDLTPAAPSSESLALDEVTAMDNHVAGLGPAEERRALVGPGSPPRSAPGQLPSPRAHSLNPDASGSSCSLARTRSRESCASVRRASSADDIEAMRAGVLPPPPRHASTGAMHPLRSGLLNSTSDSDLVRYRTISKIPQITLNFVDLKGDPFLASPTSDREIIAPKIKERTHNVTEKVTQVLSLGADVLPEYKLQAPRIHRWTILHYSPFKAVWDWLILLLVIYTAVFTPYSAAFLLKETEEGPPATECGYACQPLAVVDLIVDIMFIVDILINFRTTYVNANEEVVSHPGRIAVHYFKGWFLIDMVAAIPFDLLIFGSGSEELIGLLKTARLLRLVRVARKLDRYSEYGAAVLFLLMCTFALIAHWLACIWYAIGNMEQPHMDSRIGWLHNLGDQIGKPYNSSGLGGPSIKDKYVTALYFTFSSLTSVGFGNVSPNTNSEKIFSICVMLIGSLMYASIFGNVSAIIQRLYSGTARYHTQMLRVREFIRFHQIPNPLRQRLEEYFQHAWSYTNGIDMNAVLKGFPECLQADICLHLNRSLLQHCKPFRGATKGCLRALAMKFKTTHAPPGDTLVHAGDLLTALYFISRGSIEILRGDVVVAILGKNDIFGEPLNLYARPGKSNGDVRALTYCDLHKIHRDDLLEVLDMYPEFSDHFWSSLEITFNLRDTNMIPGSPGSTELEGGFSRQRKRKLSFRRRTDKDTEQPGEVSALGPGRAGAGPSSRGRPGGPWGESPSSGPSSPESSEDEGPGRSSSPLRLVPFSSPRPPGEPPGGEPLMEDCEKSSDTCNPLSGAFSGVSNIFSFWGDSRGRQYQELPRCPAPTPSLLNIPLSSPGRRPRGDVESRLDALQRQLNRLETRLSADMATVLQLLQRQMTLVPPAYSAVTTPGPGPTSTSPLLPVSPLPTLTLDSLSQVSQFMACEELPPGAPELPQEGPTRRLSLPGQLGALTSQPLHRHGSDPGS
structure (smiles),measurement,setting,value
NC1CCN(C(=O)c2ccc(-c3ccc4ncc(-c5cc6ccccc6o5)n4c3)cc2)CC1,IC50,[1],4.4 µM
N[C@H]1CCCN(C(=O)c2ccc(-c3ccc4ncc(-c5cc6ccccc6o5)n4n3)cc2)C1,IC50,[1],> 30 µM
CN(C)C1CCN(C(=O)c2ccc(-c3ccc4ncc(-c5cc6ccccc6o5)n4c3)cc2)CC1,IC50,[1],1.03 µM
O=C(c1ccc(-c2ccc3ncc(-c4cc5ccccc5o4)n3n2)cc1)N1CCC(N2CCCCC2)CC1,IC50,[1],> 30 µM
O=C(c1ccc(-c2ccc3ncc(-c4cc5ccccc5o4)n3n2)cc1)N1CCOCC1,IC50,[1],> 30 µM
N[C@@H]1CCCN(C(=O)c2ccc(-c3ccc4ncc(-c5cc6ccccc6o5)n4n3)cc2)C1,IC50,[1],5.82 µM
N[C@@H]1CCCN(C(=O)c2ccc(-c3ccc4ncc(-c5cc6ccccc6o5)n4c3)cc2)C1,IC50,[1],4.66 µM
CN(C)C1CCN(C(=O)c2ccc(-c3ccc4ncc(-c5cc6ccccc6o5)n4n3)cc2)CC1,IC50,[1],2.97 µM
NC1CCN(C(=O)c2ccc(-c3ccc4ncc(-c5cc6ccccc6o5)n4n3)cc2)CC1,IC50,[1],7.98 µM
N#Cc1ccc(-c2cnc3ccc(-c4ccc(C(=O)N5CCOCC5)cc4)cn23)cc1 [TINODASERTIB],half-life,in vitro [2],1.12 h
same,half-life,in vitro [3],1.39 h
same,half-life,in vitro [4],0.302 h
Cc1cc(Nc2cc(N)ncn2)c(=O)n2c1C(=O)NC21CCCCC1 [TOMIVOSERTIB],IC50,LN-18,6.27 µM
same,inhibition in vivo at 10 mg/kg,TMD8 [5],75%
same,IC50,[1],> 30 µM
same,IC50,TMD8 [6],> 50 µM
same,IC50,DOHH-2,6.3 µM
same,IC50,HT-29,> 50 µM
same,IC50,PC-3,29.4 µM
same,IC50,A549,> 50 µM
same,IC50,PANC-1,> 50 µM
same,IC50,MDA-MB-231,45 µM
same,half-life,in vitro [2],> 2 h
same,half-life,in vitro [3],> 2 h
same,half-life,in vitro [4],> 2 h

# — ChEMBL document CHEMBL5518245, “Development of an Imidazopyridazine-Based MNK1/2 Inhibitor for the Treatment of Lymphoma” (J Med Chem, 2024)
